Laboratory results reported in ChEMBL document CHEMBL4619816, “GSK973 Is an Inhibitor of the Second Bromodomains (BD2s) of the Bromodomain and Extra-Terminal (BET) Family” (ACS Med Chem Lett, 2020).
The source made the active and inactive calls. The calls are words filed in the database; no cut-off is given here.

What was measured:
[1] = Clearance in Beagle dog hepatocytes assessed as per gram tissue at 0.5 uM by LC-MS/MS analysis; format: ADME, cell-based, Canis lupus familiaris, Hepatocyte
[2] = Half life in Beagle dog at 1 mg/kg, iv; format: ADME, organism-based, Canis lupus familiaris; conditions: in vivo
[3] = Chromatographic hydrophobicity index, log D of the compound in pH 7.4 ammonium acetate buffer/acetonitrile gradient by HPLC analysis; format: physicochemical
[4] = Oral bioavailability in Beagle dog at 1 mg/kg, […]; format: ADME, organism-based, Canis lupus familiaris; conditions: in vivo
[5] = biological target: Histone acetyltransferase KAT2B (Homo sapiens) (UniProt Q92831); assay: Inhibition of human partial length PCAF (G715 to D831 residues) expressed in bacterial expression system by BROMOscan assay
[6] = biological target: SWI/SNF-related matrix-associated actin-dependent regulator of chromatin subfamily A member 4 (Homo sapiens) (UniProt P51532); assay: Inhibition of human partial length SMARCA4 (A1448 to S1575 residues) expressed in bacterial expression system by BROMOscan assay
[7] = Renal clearance in Wistar Han rat at 1 mg/kg administered as iv infusion for 1 hr and measured up to 24 hrs by LC-MS/MS analysis; format: ADME, organism-based; conditions: in vivo
[8] = biological target: Protein polybromo-1 (Homo sapiens) (UniProt Q86U86); assay: Inhibition of human partial length PBRM1 bromodomain 5 (S645 to D766 residues) expressed in bacterial expression system by BROMOscan assay
[9] = Renal clearance in Beagle dog at 1 mg/kg, iv; format: ADME, organism-based, Canis lupus familiaris; conditions: in vivo
[10] = Clearance in Beagle dog at 1 mg/kg, iv; format: ADME, organism-based, Canis lupus familiaris; conditions: in vivo
[11] = biological target: Bromodomain testis-specific protein (Homo sapiens) (UniProt Q58F21); assay: Inhibition of BRDT bromodomain 1/2 (unknown origin) by BROMOscan assay
[12] = biological target: Bromodomain testis-specific protein (Homo sapiens) (UniProt Q58F21); assay: Inhibition of human partial length BRDT bromodomain 1 (N21 to E137 residues) expressed in bacterial expression system by BROMOscan assay
[13] = biological target: Bromodomain-containing protein 7 (Homo sapiens) (UniProt Q9NPI1); assay: Inhibition of human partial length BRD7 (L125 to R254 residues) expressed in mammalian expression system by BROMOscan assay
Blood = assay: Inhibition of LPS-induced MCP1 production in human whole blood preincubated for 30 mins followed by LPS addition measured after 24 hrs by immuno assay; format: functional, tissue-based
[14] = biological target: Histone acetyltransferase KAT2A (Homo sapiens) (UniProt Q92830); assay: Inhibition of human partial length GCN5L2 (E726 to K837 residues) expressed in bacterial expression system by BROMOscan assay
[15] = biological target: Bromodomain-containing protein 3 (Homo sapiens) (UniProt Q15059); assay: Inhibition of human partial length BRD3 bromodomain 2 (G306 to P416 residues) expressed in bacterial expression system by BROMOscan assay
[16] = biological target: Protein polybromo-1 (Homo sapiens) (UniProt Q86U86); assay: Inhibition of human partial length PBRM1 bromodomain 1 (S178 to E291 residues) expressed in bacterial expression system by BROMOscan assay
[17] = biological target: Bromodomain adjacent to zinc finger domain protein 2B (Homo sapiens) (UniProt Q9UIF8); assay: Inhibition of human partial length BAZ2B (S2054 to S2168 residues) expressed in bacterial expression system by BROMOscan assay
[18] = Volume of distribution at steady state in Beagle dog at 1 mg/kg, iv; format: ADME, organism-based, Canis lupus familiaris; conditions: in vivo, read-out: Vdss
[19] = biological target: Bromodomain-containing protein 2 (Homo sapiens) (UniProt P25440); assay: Inhibition of human partial length BRD2 bromodomain 2 isoform 1 (E348 to D455 residues) expressed in bacterial expression system by BROMOscan assay
[20] = Half life in Wistar Han rat at 1 mg/kg administered as iv infusion for 1 hr and measured up to 24 hrs by LC-MS/MS analysis; format: ADME, organism-based; conditions: in vivo
[21] = biological target: Bromodomain-containing protein 8 (Homo sapiens) (UniProt Q9H0E9); assay: Inhibition of BRD8 bromodomain 2 (unknown origin) by BROMOscan assay
[22] = Permeability of compound by artificial membrane assay; format: ADME; conditions: PAMPA; read-out: permeability
[23] = biological target: ATPase family AAA domain-containing protein 2 (Homo sapiens) (UniProt Q6PL18); assay: Inhibition of human partial length ATAD2A (Q981 to R1108 residues) expressed in bacterial expression system by BROMOscan assay
[24] = Oral bioavailability in Wistar Han rat at 3 mg/kg measured up to 24 hrs by LC-MS/MS analysis; format: ADME, organism-based; conditions: in vivo
[25] = Clearance in Wistar Han rat hepatocytes assessed as per gram tissue at 0.5 uM measured up to 1 hr by LC-MS/MS analysis; format: ADME, cell-based, Hepatocyte
[26] = biological target: ATPase family AAA domain-containing protein 2B (Homo sapiens) (UniProt Q9ULI0); assay: Inhibition of human partial length ATAD2B (Q955 to R1082 residues) expressed in bacterial expression system by BROMOscan assay
[27] = biological target: SWI/SNF-related matrix-associated actin-dependent regulator of chromatin subfamily A member 2 (Homo sapiens) (UniProt P51531); assay: Inhibition of human partial length SMARCA2 (S1377 to Q1486 residues) expressed in bacterial expression system by BROMOscan assay
Peregrin (Homo sapiens) = Peregrin (Homo sapiens) (UniProt P55201); assay: Inhibition of human partial length BRPF1 (E627 to G740 residues) expressed in bacterial expression system by BROMOscan assay
[28] = Clearance in Wistar Han rat at 1 mg/kg administered as iv infusion for 1 hr and measured up to 24 hrs by LC-MS/MS analysis; format: ADME, organism-based; conditions: in vivo
[29] = biological target: Bromodomain-containing protein 9 (Homo sapiens) (UniProt Q9H8M2); assay: Inhibition of human partial length BRD9 (R130 to V259 residues) expressed in bacterial expression system by BROMOscan assay
[30] = biological target: Bromodomain-containing protein 3 (Homo sapiens) (UniProt Q15059); assay: Inhibition of BRD3 bromodomain 1/2 (unknown origin) by BROMOscan assay
[31] = biological target: Bromodomain adjacent to zinc finger domain protein 2A (Homo sapiens) (UniProt Q9UIF9); assay: Inhibition of human partial length BAZ2A (M1792 to L1905 residues) expressed in bacterial expression system by BROMOscan assay
[32] = Volume of distribution at steady state in Wistar Han rat at 1 mg/kg administered as iv infusion for 1 hr and measured up to 24 hrs by LC-MS/MS analysis; format: ADME, organism-based; conditions: in vivo, read-out: Vdss
[33] = biological target: Bromodomain-containing protein 2 (Homo sapiens) (UniProt P25440); assay: Inhibition of human partial length BRD2 bromodomain 1 long isoform (K71 to N194 residues) expressed in bacterial expression system by BROMOscan assay
[34] = biological target: Transcription intermediary factor 1-alpha (Homo sapiens) (UniProt O15164); assay: Inhibition of human partial length TRIM24 (P790 to P977 residues) expressed in bacterial expression system by BROMOscan assay
[35] = biological target: E3 ubiquitin-protein ligase TRIM33 (Homo sapiens) (UniProt Q9UPN9); assay: Inhibition of human partial length TRIM33 (D882 to A1087 residues) expressed in bacterial expression system by BROMOscan assay
[36] = biological target: Bromodomain-containing protein 2 (Homo sapiens) (UniProt P25440); assay: Inhibition of human partial length BRD2 bromodomain 1/2 isoform 1 (K71 to D455 residues) by BROMOscan assay

Bromodomain-containing protein 2 (Homo sapiens), sequence (P25440 whole entry, looked up, the tested form may be a part, canonical isoform): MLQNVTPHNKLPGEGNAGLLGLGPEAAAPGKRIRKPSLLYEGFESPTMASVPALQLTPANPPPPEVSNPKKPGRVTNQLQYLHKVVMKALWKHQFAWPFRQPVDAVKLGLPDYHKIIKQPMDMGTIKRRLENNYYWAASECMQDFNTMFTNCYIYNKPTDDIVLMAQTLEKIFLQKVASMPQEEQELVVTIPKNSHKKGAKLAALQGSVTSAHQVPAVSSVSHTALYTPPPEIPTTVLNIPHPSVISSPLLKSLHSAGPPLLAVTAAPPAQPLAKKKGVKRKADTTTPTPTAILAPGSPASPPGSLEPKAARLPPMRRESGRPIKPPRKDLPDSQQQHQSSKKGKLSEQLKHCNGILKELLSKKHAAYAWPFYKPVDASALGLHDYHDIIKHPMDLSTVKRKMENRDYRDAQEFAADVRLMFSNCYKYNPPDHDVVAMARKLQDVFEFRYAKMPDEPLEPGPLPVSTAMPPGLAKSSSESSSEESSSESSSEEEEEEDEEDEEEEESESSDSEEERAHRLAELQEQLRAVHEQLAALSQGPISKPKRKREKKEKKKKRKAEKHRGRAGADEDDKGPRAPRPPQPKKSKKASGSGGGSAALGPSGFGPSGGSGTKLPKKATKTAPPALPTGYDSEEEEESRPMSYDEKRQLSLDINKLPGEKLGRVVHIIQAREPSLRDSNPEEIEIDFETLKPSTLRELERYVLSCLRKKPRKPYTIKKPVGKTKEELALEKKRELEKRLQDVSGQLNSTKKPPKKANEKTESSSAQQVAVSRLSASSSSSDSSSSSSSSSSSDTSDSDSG
Bromodomain-containing protein 3 (Homo sapiens), sequence (Q15059 2-726 limits assumed): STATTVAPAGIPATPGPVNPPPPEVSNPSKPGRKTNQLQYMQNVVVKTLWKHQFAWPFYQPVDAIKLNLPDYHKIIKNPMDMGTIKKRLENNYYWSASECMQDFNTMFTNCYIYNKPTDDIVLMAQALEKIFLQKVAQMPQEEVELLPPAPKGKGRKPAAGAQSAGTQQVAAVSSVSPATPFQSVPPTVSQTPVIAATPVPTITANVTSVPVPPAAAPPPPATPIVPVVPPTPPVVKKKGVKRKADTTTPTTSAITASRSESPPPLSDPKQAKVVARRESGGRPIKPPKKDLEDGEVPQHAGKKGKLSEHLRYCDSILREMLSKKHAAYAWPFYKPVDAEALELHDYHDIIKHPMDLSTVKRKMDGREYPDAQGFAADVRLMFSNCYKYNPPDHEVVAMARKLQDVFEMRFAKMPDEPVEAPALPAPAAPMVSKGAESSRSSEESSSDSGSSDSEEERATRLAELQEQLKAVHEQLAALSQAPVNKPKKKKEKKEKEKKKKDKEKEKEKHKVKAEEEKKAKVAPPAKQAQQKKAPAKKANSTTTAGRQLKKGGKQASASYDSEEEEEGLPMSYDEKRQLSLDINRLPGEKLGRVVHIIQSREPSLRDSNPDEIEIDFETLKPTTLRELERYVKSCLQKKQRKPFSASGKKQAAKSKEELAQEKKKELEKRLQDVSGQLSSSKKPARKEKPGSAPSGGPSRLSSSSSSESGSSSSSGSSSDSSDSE
Protein polybromo-1 (Homo sapiens), sequence (Q86U86 whole entry, the tested form may be a part): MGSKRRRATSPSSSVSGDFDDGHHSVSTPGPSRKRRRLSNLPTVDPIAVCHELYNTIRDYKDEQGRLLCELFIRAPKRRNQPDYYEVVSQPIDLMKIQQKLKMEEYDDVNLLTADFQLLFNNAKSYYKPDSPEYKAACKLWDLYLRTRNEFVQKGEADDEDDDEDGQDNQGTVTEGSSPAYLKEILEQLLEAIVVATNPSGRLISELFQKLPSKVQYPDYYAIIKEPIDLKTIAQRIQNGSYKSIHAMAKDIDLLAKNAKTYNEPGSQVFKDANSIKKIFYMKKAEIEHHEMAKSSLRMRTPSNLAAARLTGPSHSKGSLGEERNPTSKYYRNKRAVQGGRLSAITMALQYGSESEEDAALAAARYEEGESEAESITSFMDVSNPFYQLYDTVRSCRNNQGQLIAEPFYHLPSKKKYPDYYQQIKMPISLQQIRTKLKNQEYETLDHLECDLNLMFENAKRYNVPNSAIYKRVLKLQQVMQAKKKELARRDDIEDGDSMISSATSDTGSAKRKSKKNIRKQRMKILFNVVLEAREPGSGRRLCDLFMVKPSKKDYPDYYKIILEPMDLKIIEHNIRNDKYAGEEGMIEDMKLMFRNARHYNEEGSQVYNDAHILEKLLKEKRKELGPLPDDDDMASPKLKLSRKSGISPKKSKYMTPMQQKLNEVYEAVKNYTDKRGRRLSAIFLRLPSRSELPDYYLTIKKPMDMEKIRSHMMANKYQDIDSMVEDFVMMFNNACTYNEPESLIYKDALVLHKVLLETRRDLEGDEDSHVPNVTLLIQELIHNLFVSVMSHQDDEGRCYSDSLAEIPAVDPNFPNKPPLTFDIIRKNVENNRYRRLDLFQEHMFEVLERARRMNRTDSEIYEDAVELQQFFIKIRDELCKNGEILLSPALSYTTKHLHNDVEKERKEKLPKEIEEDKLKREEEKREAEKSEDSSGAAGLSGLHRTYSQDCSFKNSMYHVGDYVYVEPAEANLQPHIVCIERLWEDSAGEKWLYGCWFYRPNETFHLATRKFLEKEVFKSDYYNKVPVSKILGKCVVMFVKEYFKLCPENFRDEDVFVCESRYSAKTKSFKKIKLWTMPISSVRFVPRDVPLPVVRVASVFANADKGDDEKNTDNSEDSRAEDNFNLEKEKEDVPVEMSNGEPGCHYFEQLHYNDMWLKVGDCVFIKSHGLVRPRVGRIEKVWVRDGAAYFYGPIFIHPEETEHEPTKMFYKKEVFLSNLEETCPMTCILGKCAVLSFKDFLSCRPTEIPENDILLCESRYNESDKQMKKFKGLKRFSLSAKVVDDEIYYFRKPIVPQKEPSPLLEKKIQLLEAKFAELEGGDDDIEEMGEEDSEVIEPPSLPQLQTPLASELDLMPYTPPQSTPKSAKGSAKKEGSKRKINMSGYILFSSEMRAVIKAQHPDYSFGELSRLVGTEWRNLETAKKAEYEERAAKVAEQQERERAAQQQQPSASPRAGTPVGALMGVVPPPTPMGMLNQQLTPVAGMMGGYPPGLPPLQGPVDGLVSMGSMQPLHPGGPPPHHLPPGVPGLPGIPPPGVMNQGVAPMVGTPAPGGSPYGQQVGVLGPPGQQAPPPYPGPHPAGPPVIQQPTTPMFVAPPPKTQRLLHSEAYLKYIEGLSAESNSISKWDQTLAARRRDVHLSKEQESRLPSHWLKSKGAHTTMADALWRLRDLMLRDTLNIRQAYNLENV
ATPase family AAA domain-containing protein 2B (Homo sapiens), sequence (Q9ULI0 whole entry, the tested form may be a part): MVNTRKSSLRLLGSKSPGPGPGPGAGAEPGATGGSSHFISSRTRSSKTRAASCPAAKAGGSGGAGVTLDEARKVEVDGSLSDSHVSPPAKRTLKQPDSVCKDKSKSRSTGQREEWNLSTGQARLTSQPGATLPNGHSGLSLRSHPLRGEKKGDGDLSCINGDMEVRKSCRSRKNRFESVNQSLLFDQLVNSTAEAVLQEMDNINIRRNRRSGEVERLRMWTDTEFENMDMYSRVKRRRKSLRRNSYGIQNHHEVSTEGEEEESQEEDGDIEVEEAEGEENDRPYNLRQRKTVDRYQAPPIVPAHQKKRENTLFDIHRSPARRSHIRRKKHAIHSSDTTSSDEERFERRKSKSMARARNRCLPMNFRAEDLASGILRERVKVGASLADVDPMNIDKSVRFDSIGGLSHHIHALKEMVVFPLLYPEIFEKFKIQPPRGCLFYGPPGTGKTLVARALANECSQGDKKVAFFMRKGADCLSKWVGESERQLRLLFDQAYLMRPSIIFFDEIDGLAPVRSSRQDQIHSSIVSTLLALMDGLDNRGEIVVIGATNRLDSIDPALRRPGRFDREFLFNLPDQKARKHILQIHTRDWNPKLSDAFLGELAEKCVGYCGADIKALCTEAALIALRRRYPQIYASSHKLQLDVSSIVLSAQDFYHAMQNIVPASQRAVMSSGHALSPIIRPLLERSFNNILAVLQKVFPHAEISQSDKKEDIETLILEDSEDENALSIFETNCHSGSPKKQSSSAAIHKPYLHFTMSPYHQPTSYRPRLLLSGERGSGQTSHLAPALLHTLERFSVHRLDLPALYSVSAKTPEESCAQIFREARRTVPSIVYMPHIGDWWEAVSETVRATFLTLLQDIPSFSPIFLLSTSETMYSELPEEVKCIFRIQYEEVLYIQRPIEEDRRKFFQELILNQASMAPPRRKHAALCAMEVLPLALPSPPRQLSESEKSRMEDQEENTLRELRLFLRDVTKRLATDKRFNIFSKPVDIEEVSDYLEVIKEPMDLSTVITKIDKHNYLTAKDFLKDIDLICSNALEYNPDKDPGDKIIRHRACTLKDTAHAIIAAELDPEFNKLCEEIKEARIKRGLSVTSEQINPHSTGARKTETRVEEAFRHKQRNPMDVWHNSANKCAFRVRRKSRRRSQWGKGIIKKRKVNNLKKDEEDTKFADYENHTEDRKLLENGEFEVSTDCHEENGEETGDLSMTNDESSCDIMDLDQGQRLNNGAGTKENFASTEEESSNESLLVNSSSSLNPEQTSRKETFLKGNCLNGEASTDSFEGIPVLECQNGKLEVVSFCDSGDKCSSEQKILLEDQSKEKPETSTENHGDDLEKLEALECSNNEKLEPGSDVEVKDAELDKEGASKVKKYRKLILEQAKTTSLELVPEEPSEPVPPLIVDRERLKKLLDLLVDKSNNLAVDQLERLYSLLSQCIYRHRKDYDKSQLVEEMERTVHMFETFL

CNC(=O)c1cc(C(=O)N[C@@H]2[C@@H]3COC[C@@H]32)cc2c1O[C@H](CF)[C@H]2c1ccccc1
CLH [1]: < 0.65 mL/min/g
half-life [2]: 4.8 h
CHI [3]: 3.56
bioavailability [4]: 87%
inhibition [5]: inactive
inhibition [6]: inactive
CL renal [7]: 4 mL/min/kg
inhibition [8]: inactive
CL renal [9]: 0.3 mL/min/kg
clearance [10]: 3 mL/min/kg
inhibition [11]: inactive
inhibition [12]: inactive
inhibition [13]: inactive
IC50 (Blood): 50.1 nM
inhibition [14]: inactive
inhibition [15]: inactive
inhibition [16]: inactive
inhibition [17]: inactive
Vd [18]: 1.3 L/kg
inhibition [19]: inactive
half-life [20]: 0.6 h
inhibition [21]: inactive
Papp [22]: 16.5 ×10⁻⁶ cm/s
inhibition [23]: inactive
bioavailability [24]: 48%
CLH [25]: 1.76 mL/min/g
inhibition [26]: inactive
inhibition [27]: inactive
inhibition (Peregrin (Homo sapiens)): inactive
clearance [28]: 73 mL/min/kg
inhibition [29]: inactive
inhibition [30]: inactive
inhibition [31]: inactive
Vd [32]: 2.1 L/kg
inhibition [33]: inactive
inhibition [34]: inactive
inhibition [35]: inactive
inhibition [36]: inactive
